According to paper PMC5341572, “Self-Assembly and Anti-Amyloid Cytotoxicity Activity of Amyloid beta Peptide Derivatives” (Scientific Reports, 2017):
Values joined by “and” are separate entries in the source; they are usually repeats but may differ in a detail not shown here. Equal entries are not always repeated. “Also recorded” adds a separate entry of the source.

Experiments:
[1] = ANS fluorescence assay for critical aggregation concentration (cac); assay type: physicochemical; settings: discontinuity in concentration-dependent ANS fluorescence; 74 μM ANS solution, λex 356 nm, spectra 400-670 nm
Experimental: 8-anilo-1-naphthalenesulfonic acid (ANS) and thioflavin T (ThT) fluorescence were used to locate the critical aggregation concentration (cac). Spectra were recorded with a Varian Cary Eclipse fluorescence spectrometer with samples in 4 mm inner width quartz cuvettes. The ANS fluorophore is a probe sensitive to the hydrophobicity of its surrounding environment, making it suitable to determine the cac. ANS assays were performed measuring spectra from 400 to 670 nm (λex = 356 nm), using a 74 μM ANS solution to solubilize the peptide. ThT fluorescence depends on the formation of amyloid-like structures[36][37] (β-sheet fibrils) and is used for amyloid fibril-forming peptides. For the ThT assay, the spectra were recorded from 460 to 600 nm using an excitation wavelength of λex = 440 nm, and the peptide was dissolved in a 5.0 × 10^−3 wt % ThT solution.

[2] = ESI mass spectrometry of peptide oligomerisation with and without HFIP; assay type: physicochemical
Experimental: Samples were diluted to 0.029 wt % peptide in both H2O and HFIP:H2O (1:9; v/v). ESI mass spectra were acquired in positive ion mode on a Synapt G2-Si instrument (Waters Corporation, Wilmslow, UK). The employed Z-spray ESI source (Waters Corporation, Wilmslow, UK) was operated at 1.8 kV and the ESI sample solutions were infused at 10 μL/min using a KD Scientific syringe pump (KD Scientific Inc., Holliston, USA). The desolvation and source temperature were 150 °C and 80 °C, respectively, and the cone voltage was set to 40 V. ESI mass spectra were acquired in triplicate in sensitivity mode with the exception of higher resolution mass spectra, which were acquired once in resolution mode with ion mobility separation enabled. For the latter, wave velocity and wave height were set to 650 m/s and 40 V, respectively, and the helium and nitrogen flow rates were 180 and 90 mL/min, respectively. The acquired data was converted to mzML format using the msconvert tool from the ProteoWizard software package. In-house developed software based on the pymzML software library[62] was used to extract the integrated isotopomer signal intensities of interest from the converted data files. The integrated ion signal intensities of the monomer (SM) and all oligomers (SO) were summed for each acquired spectrum to determine the total ion signal intensity of the analysed peptide species (ST):
The relative extent of oligomerisation (EO) was determined by dividing the integrated ion signal intensities of the oligomers (SO) by the total ion signal intensity of the analysed peptide (ST): […]

Aβ(1–42) = target: T1, Aβ(1–42) (Homo sapiens, UniProt P05067); assay: CD spectroscopy of Aβ(1–42) secondary structure on addition of peptide; settings: Aβ(1–42):peptide molar ratio 1:1.2 for peptide 1 and 1:1.6 for peptide 2; Tris buffer pH 7.4
T1 construct: purchased American Peptide Inc. (Sunnyvale, USA)
T1 sequence (P05067 672-713): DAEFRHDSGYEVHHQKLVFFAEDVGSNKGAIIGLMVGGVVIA
Experimental: HFIP was then evaporated under a slow stream of N2.
CD spectra were recorded using a Chirascan spectropolarimeter (Applied Photophysics, UK). Peptide solutions were placed in a cover slip cuvette (1 × 10^−2 or 0.1 mm thick), spectra presented being with absorbance A < 2 at any measured point with a 0.5 nm step, 1 nm bandwidth, and 1 s collection time per step. The CD signal from the background was subtracted from the CD data of the sample solutions. […] CD experiments were performed using a Quartz cuvette with 1mm path length.

[3] = tested on: primary rat cortical neurons; assay: MTS neurotoxicity assay with primary neurons; assay type: cell-based; settings: final Aβ 20 μM, 20 h
[4] = tested on: SH-SY5Y neuroblastoma cells; assay: MTS neurotoxicity assay with SH-SY5Y cells; assay type: cell-based; settings: 24 h
Experimental: SH-SY5Y neuroblastoma cells were maintained in a 1:1 ratio of Ham’s F12 and Dulbecco’s Modified Eagle Medium with 10% foetal calf serum and penicillin/streptomycin at 37 °C and 5% CO2. At 85–95% confluence the cells were detached from their growth substrate using trypsin and the growth medium was removed following centrifugation of the cells at 500xg for five minutes. The cells were re-suspended in a serum-free medium (Optimem with penicillin/streptomycin) and distributed at 20,000 cells per well in a 96-well plate then incubated at 37 °C, 5% CO2 for a further 24 hours. […] Cells were incubated for a further 24 hours as above and then assayed for cell survival using an MTS based assay (CellTiter 96 AQueous One Solution Cell Proliferation Assay from Promega).

[5] = peptide to Aβ(1–42) ratio 1:2 (2.5 μM peptide, 5 μM Aβ)
[6] = peptide to Aβ(1–42) ratio 1:5 (1 μM peptide, 5 μM Aβ)
[7] = peptide to Aβ(1–42) ratio 1:20 (0.25 μM peptide, 5 μM Aβ)

SMILES | critical aggregation concentration (cac), ANS assay (hydrophobic collapse) [1] | aggregation state n of self-assemblies (oligomers) seen by ESI MS ([2]; 0.029 wt% peptide) | relative extent of oligomerisation (Eo)H2O ([2]; 0.029 wt% peptide in H2O, positive-ion ESI MS, oligomer signal / total peptide signal, spectra in triplicate) | relative extent of oligomerisation (Eo)HFIP ([2]; 0.029 wt% peptide in HFIP:H2O (1:9 v/v), positive-ion ESI MS, oligomer signal / total peptide signal, spectra in triplicate) | β-sheet minimum (216 nm) in CD spectrum of Aβ(1–42) upon addition of peptide (Aβ(1–42)) | effect on viability of Aβ(1–42)-treated neurons ([3]; Aβ:peptide 1:1 (equimolarity), co-incubated 72 h with 100 μM Aβ(1–42)) | improvement of viability of Aβ(1–42)-treated neurons ([3]; Aβ:peptide molar ratio 1:1.5, co-incubated 72 h, p < 0.05) | effect on Aβ(1–42) cytotoxicity, in words [4, 5] | effect on Aβ(1–42) cytotoxicity, in words [4, 6] | effect on Aβ(1–42) cytotoxicity, in words [4, 7] | effect of peptide alone on cells, in words ([4]; 2.5 μM peptide in the absence of Aβ(1–42)) | effect on Aβ(1–42) cytotoxicity, in words ([4]; peptide to Aβ(1–42) ratio 1:2 (2.5 μM peptide, 5 μM Aβ), listed as Peptide 2)
CC(C)C[C@H](NC(=O)[C@@H](N)CCCCN)C(=O)N[C@H](C(=O)N[C@@H](Cc1ccccc1)C(=O)N[C@@H](Cc1ccccc1)C(N)=O)C(C)C [peptide 1, NH2-KLVFF-CONH2] | 1.00 ± 5 × 10^−2 wt% and ~ 1 wt% | ≤ 7 | 0.040 ± 0.002 | 0.046 ± 0.002 | significantly reduced | no effect | ~ 70% | block the cytotoxic effect | not very effective; also recorded: no protective effect | not very effective; also recorded: no protective effect | – | –
CC(C)C[C@H](NC(=O)[C@@H](N)CCCCNC(=O)OC(C)(C)C)C(=O)N[C@H](C(=O)N[C@@H](Cc1ccccc1)C(=O)N[C@@H](Cc1ccccc1)C(N)=O)C(C)C [peptide 2, NH2-K(Boc)LVFF-CONH2] | – | – | – | – | – | – | – | block the cytotoxic effect | positive effect | positive effect | negative effect | rescues the cells
